For the experiment, the target named is MAGL (Mus musculus (Mouse), UniProt O35678). The experiment is described as follows: In vitro competitive activity-based protein profiling, mouse brain proteome. Conditions: for IC50: mouse brain. It counts as biochemical.

Structures are written as SMILES.

MAGL, sequence (O35678 whole entry): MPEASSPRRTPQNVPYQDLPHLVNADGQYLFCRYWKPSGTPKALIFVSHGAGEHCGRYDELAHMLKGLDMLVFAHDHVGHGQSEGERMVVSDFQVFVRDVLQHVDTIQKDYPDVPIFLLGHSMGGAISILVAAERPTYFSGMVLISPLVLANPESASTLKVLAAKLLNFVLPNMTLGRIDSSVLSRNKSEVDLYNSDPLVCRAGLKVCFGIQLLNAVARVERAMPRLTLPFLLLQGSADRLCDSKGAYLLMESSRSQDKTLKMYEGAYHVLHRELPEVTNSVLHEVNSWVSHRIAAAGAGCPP

As usually defined, the IC50 is the midpoint of a concentration-inhibition curve. Low readings indicate inhibition by little substance, high ones a need for much substance. `CC(C)n1cc(CN2CCCC23CCN(C(=O)OC(C(F)(F)F)C(F)(F)F)CC3)c(-c2cccc(N3CCCC3)c2)n1` [Example 8, 1,1,1,3,3,3-Hexafluoropropan-2-yl 1-((1-isopropyl-3-(3-(pyrrolidin-1-yl)phenyl)-1H-pyrazol-4-yl)methyl)-1,8-diazaspiro[4.5]decane-8-carboxylate] displayed an IC50 of 0.1 to 1 µM. Moreover, for the setting “1 uM, mouse”, the “MAGL % Inhibition at 1 uM (Mouse)” value is recorded as “### (% inhibition is greater than or equal to 75%)”.
The inhibition is how much of the control response was suppressed. Read a low inhibition as little suppression. With `O=C(OC(C(F)(F)F)C(F)(F)F)N1CCC2(CCCN2C(=O)c2cccnc2)CC1` [Example 13, 1,1,1,3,3,3-Hexafluoropropan-2-yl 1-nicotinoyl-1,8-diazaspiro[4.5]decane-8-carboxylate], the inhibition at 1 µM (1 uM, mouse) was > 75%.
`Cc1ccc2[nH]c(C(=O)N3CCCC34CCN(C(=O)OC(C(F)(F)F)C(F)(F)F)CC4)cc2c1` [Example 14, 1,1,1,3,3,3-Hexafluoropropan-2-yl 1-(5-methyl-1H-indole-2-carbonyl)-1,8-diazaspiro[4.5]decane-8-carboxylate]: the IC50 is < 0.1 µM. In addition, under “1 uM, mouse”, the inhibition at 1 µM was > 75%.
Turning to `O=C(O)c1ccc2[nH]c(CN3CCCC34CCN(C(=O)OC(C(F)(F)F)C(F)(F)F)CC4)cc2c1` [Example 15, 2-((8-(((1,1,1,3,3,3-Hexafluoropropan-2-yl)oxy)carbonyl)-1,8-diazaspiro[4.5]decan-1-yl)methyl)-1H-indole-5-carboxylic acid], for the setting “1 uM, mouse”, the inhibition at 1 µM fell in the range of 25 to 75%.
`O=C(OC(C(F)(F)F)C(F)(F)F)N1CCC2(CCCN2Cc2cc3c(Cl)cccc3s2)CC1` [Example 44, 1,1,1,3,3,3-Hexafluoropropan-2-yl 1-((4-chlorobenzo[b]thiophen-2-yl)methyl)-1,8-diazaspiro[4.5] decane-8-carboxylate] returned an IC50 of 0.1 to 1 µM. Besides, under “1 uM, mouse”, the inhibition at 1 µM is > 75%.
For `O=C(OC(C(F)(F)F)C(F)(F)F)N1CCC2(CCCN2Cc2c[nH]c3cccc(Cl)c23)CC1` [Example 45, 1,1,1,3,3,3-Hexafluoropropan-2-yl 1-((4-chloro-1H-indol-3-yl)methyl)-1,8-diazaspiro[4.5] decane-8-carboxylate], the IC50 lay within 0.1 to 1 µM.
As for `O=C(OC(C(F)(F)F)C(F)(F)F)N1CCC2(CCCN2Cc2cc(-c3ccc(Cl)cc3)on2)CC1` [Example 47, 1,1,1,3,3,3-Hexafluoropropan-2-yl 1-((5-(4-chlorophenyl)isoxazol-3-yl)methyl)-1,8-diazaspiro[4.5] decane-8-carboxylate], the half-inhibitory concentration (IC50) is < 0.1 µM. Further, the inhibition at 1 µM (1 uM, mouse) is > 75%.
For the compound `Cc1c(CN2CCCC23CCN(C(=O)OC(C(F)(F)F)C(F)(F)F)CC3)[nH]c2ccc(Cl)cc12` [Example 48, 1,1,1,3,3,3-Hexafluoropropan-2-yl 1-((5-chloro-3-methyl-1H-indol-2-yl)methyl)-1,8-diazaspiro[4.5] decane-8-carboxylate], the inhibition at 1 µM (1 uM, mouse) is > 75%.
In turn, `Cc1c(CN(C)C2(C)CCN(C(=O)OC(C(F)(F)F)C(F)(F)F)CC2)sc2ccccc12` [Example 50, 1,1,1,3,3,3-Hexafluoropropan-2-yl 4-methyl-4-(methyl((3-methylbenzo[b]thiophen-2-yl)methyl)amino) piperidine-1-carboxylate] registered an IC50 of 0.1 to 1 µM. The inhibition at 1 µM (1 uM, mouse) is > 75%.
In the case of `COc1cccc2cc(CN3CCCC34CCN(C(=O)OC(C(F)(F)F)C(F)(F)F)CC4)[nH]c12` [Example 53, 1,1,1,3,3,3-Hexafluoropropan-2-yl 1-((7-methoxy-1H-indol-2-yl)methyl)-1,8-diazaspiro[4.5] decane-8-carboxylate], the inhibition at 1 µM (1 uM, mouse) is > 75%.
For the compound `O=C(OC(C(F)(F)F)C(F)(F)F)N1CCC2(CCCN2Cc2ccc3cc(Cl)ccc3n2)CC1` [Example 55, 1,1,1,3,3.3-Hexafluoropropan-2-yl 1-((6-chloroquinolin-2-yl)methyl)-1,8-diazaspiro[4.5] decane-8-carboxylate], the IC50 was < 0.1 µM. Besides, the inhibition at 1 µM (1 uM, mouse) was > 75%.
Consider `Cc1ccc2cc(C(=O)N3CCCC34CCN(C(=O)OC(C(F)(F)F)C(F)(F)F)CC4)sc2c1` [Example 59, 1,1,1,3,3,3-Hexafluoropropan-2-yl 1-(6-methylbenzo[b]thiophene-2-carbonyl)-1,8-diazaspiro[4.5] decane-8-carboxylate], for which the inhibition at 1 µM (1 uM, mouse) was > 75%.
`O=C(OC(C(F)(F)F)C(F)(F)F)N1CCC2(CCN(Cc3cccnc3)C2)CC1` [Example 64, 1,1,1,3,3,3-Hexafluoropropan-2-yl 2-(pyridin-3-ylmethyl)-2,8-diazaspiro[4.5] decane-8-carboxylate] came in with an IC50 of 0.1 to 1 µM. For the same compound, the inhibition at 1 µM (1 uM, mouse) is > 75%.
For `O=C(OC(C(F)(F)F)C(F)(F)F)N1CCC2(CCN(Cc3ncccn3)C2)CC1` [Example 65, 1,1,1,3,3,3-Hexafluoropropan-2-yl 2-(pyrimidin-2-ylmethyl)-2,8-diazaspiro[4.5] decane-8-carboxylate], the inhibition at 1 µM (1 uM, mouse) is > 75%.
Take `O=C(OC(C(F)(F)F)C(F)(F)F)N1CCC2(CCN(Cc3nccs3)C2)CC1` [Example 66, 1,1,1,3,3,3-Hexafluoropropan-2-yl 2-(thiazol-2-ylmethyl)-2,8-diazaspiro [4.5]decane-8-carboxylate]: the IC50 was < 0.1 µM. Besides, the inhibition at 1 µM (1 uM, mouse) is > 75%.
For `O=C(OC(C(F)(F)F)C(F)(F)F)N1CCC2(CCN(Cc3cncnc3)C2)CC1` [Example 67, 1,1,1,3,3,3-Hexafluoropropan-2-yl 2-(pyrimidin-5-ylmethyl)-2,8-diazaspiro[4.5] decane-8-carboxylate], in that order: 0.1 to 1 µM and > 75%.
Compound `Cn1cc(C(=O)N2CCCC23CCN(C(=O)OC(C(F)(F)F)C(F)(F)F)CC3)cn1` [Example 70, 1,1,1,3,3,3-Hexafluoropropan-2-yl 1-(1-methyl-1H-pyrazole-4-carbonyl)-1,8-diazaspiro[4.5] decane-8-carboxylate] came in with a 50% inhibitory concentration (IC50) of 0.1 to 1 µM. Also, the inhibition at 1 µM (1 uM, mouse) is > 75%.
With `O=C(OC(C(F)(F)F)C(F)(F)F)N1CCC2(CCCN2C(=O)c2cnn(-c3ccccc3)c2)CC1` [Example 72, 1,1,1,3,3,3-Hexafluoropropan-2-yl 1-(1-phenyl-1H-pyrazole-4-carbonyl)-1,8-diazaspiro[4.5] decane-8-carboxylate], the IC50 was < 0.1 µM. Besides, the inhibition at 1 µM (1 uM, mouse) was > 75%.
For `O=C(OC(C(F)(F)F)C(F)(F)F)N1CCC2(CCN(Cc3ccccn3)C2)CC1` [Example 73, 1,1,1,3,3,3-Hexafluoropropan-2-yl 2-(pyridin-2-ylmethyl)-2,8-diazaspiro [4.5]decane-8-carboxylate], in that order: 0.1 to 1 µM and > 75%.
On to `O=C(OC(C(F)(F)F)C(F)(F)F)N1CCC2(CCN(Cc3ccncn3)C2)CC1` [Example 74, 1,1,1,3,3,3-Hexafluoropropan-2-yl 2-(pyrimidin-4-ylmethyl)-2,8-diazaspiro[4.5] decane-8-carboxylate], for which the IC50 was < 0.1 µM. In addition, the inhibition at 1 µM (1 uM, mouse) is > 75%.
The like results for `O=C(OC(C(F)(F)F)C(F)(F)F)N1CCC2(CCCN2C(=O)c2cc3ccccc3[nH]2)CC1` [Example 76, 1,1,1,3,3,3-Hexafluoropropan-2-yl 1-(1H-indole-2-carbonyl)-1,8-diazaspiro[4.5] decane-8-carboxylate] were, in that order, < 0.1 µM and > 75%.

These data come from patent US11142526B2, “Spirocycle compounds and methods of making and using same” (H. Lundbeck A/S, priority 2017, dated 2021).
